The nature of series [1]: in vitro. The conditions noted are these: rat, liver microsomes. For orientation: Liver microsomes are vesicles of endoplasmic reticulum, rich in cytochrome P450 enzymes.
Series [2] in a line: in vivo. The following applies: ICR, mouse, plasma, po, 10 mg/kg.
The nature of series [3]: in vitro. The conditions noted are these: human, liver microsomes.
Series [4] is described as follows: in vivo. The conditions noted are these: ICR, mouse, plasma, po, 10 mg/kg. The source holds these as a separate data set.
A short description of series [5]: in vitro. The conditions noted are these: mouse, liver microsomes.

On to `Cn1c(=O)n(CCCO)c(=O)c2c1nc(Oc1cccc(Cl)c1)n2Cc1ccc(Cl)cc1`, for which the half-life (usually the time in which the quantity being followed falls by half) at 1 h, 1 µM was 4 min in “in vitro [1]”, 117 min in the series “in vitro [3]” and 12 min in “in vitro [5]”. Besides, the concentration at 4 h in the series “in vivo [2]” came out at 398 ng/mL. The same molecule returned a concentration at 1 h in “in vivo [4]” of 802 ng/mL.
For `Cn1c(=O)n(CCCO)c(=O)c2c1cc(C1CC1C1CCCC1)n2Cc1ccc(Cl)cc1` (stereo unspecified), the half-life at 1 h, 1 µM is 1 min in the series “in vitro [1]”, 12 min in “in vitro [3]” and 4 min in “in vitro [5]”.
Take `Cn1c(=O)n(CCCO)c(=O)c2c1cc(/C=C/c1ccc(Cl)cc1)n2Cc1ccc(Cl)cc1`: the half-life at 1 h, 1 µM in “in vitro [1]” came out at 40 min; in the series “in vitro [3]” it was 141 min; in the series “in vitro [5]” it was 115 min.

The values above are taken from ChEMBL document CHEMBL6153114, “Property-Based Design of Xanthine Derivatives as Potent and Orally Available TRPC4/5 Inhibitors for Depression and Anxiety” (J Med Chem, 2025).
